In the CheMixHub viscosity set:

Assay: xn = mol fraction of the nth substance listed

ClCCCCCCCl + Cc1ccc(C)cc1
viscosity [mPa·s], 101 kPa
Conditions | x1 = 0.08955 | x1 = 0.1825 | x1 = 0.2818 | x1 = 0.3684 | x1 = 0.4454 | x1 = 0.5735 | x1 = 0.6793 | x1 = 0.7843 | x1 = 0.8888
308.15 K | 0.586 | 0.645 | 0.722 | 0.802 | 0.878 | 1.027 | 1.154 | 1.307 | 1.45
313.15 K | 0.558 | 0.621 | 0.686 | 0.756 | 0.83 | 0.972 | 1.095 | 1.242 | 1.378
318.15 K | 0.534 | 0.595 | 0.653 | 0.714 | 0.78 | 0.899 | 1.014 | 1.134 | 1.267

C=C(C)C(=O)OC + CCCCCO
viscosity [mPa·s], 101.3 kPa
Conditions | 298.15 K | 308.15 K
x1 = 0.0449 | 3.018 | 2.317
x1 = 0.1463 | 2.195 | 1.733
x1 = 0.2463 | 1.658 | 1.34
x1 = 0.3476 | 1.29 | 1.064
x1 = 0.4311 | 1.077 | 0.9
x1 = 0.5019 | 0.941 | 0.793
x1 = 0.5439 | 0.876 | 0.74
x1 = 0.6459 | 0.753 | 0.641
x1 = 0.7431 | 0.674 | 0.575
x1 = 0.8477 | 0.619 | 0.527
x1 = 0.9445 | 0.591 | 0.501

C=C(C)C(=O)OC + CO
viscosity [mPa·s], 101 kPa
Conditions | x2 = 0.1152 | x2 = 0.2092 | x2 = 0.3024 | x2 = 0.4008 | x2 = 0.5011 | x2 = 0.6041 | x2 = 0.7013 | x2 = 0.8003 | x2 = 0.9033
293.15 K | 0.5752 | 0.5665 | 0.5622 | 0.5592 | 0.5546 | 0.5576 | 0.5612 | 0.5709 | 0.5792
298.15 K | 0.5416 | 0.5329 | 0.5294 | 0.5266 | 0.5222 | 0.5232 | 0.5269 | 0.5357 | 0.5425
303.15 K | 0.5126 | 0.5046 | 0.5012 | 0.4973 | 0.4928 | 0.4944 | 0.4965 | 0.5036 | 0.5088
308.15 K | 0.4841 | 0.4783 | 0.4739 | 0.4705 | 0.4665 | 0.4673 | 0.4689 | 0.4748 | 0.4792
313.15 K | 0.4611 | 0.4552 | 0.4511 | 0.4474 | 0.4428 | 0.4435 | 0.4441 | 0.4493 | 0.4529
318.15 K | 0.4391 | 0.4335 | 0.4297 | 0.4261 | 0.4212 | 0.4228 | 0.4243 | 0.4259 | 0.4285
323.15 K | 0.4195 | 0.4138 | 0.4101 | 0.4063 | 0.4022 | 0.4031 | 0.4043 | 0.4057 | 0.4065

CCCCCCCCCCCC(=O)[O-].[Na+] + CCCCCCCC(=O)O
100 kPa, x1 = 0.2
Conditions | viscosity [mPa·s]
293.15 K | 60.29
298.15 K | 47.97
303.15 K | 38.68
308.15 K | 31.58
313.15 K | 26.09
318.15 K | 21.79
323.15 K | 18.38

C[N+](C)(C)CCC[N+]1(C)CCCCC1.N#C[N-]C#N.N#C[N-]C#N + CO
viscosity [mPa·s], 100 kPa
Conditions | 303.15 K | 313.15 K | 323.15 K
x1 = 0.0999 | – | – | 2.735
x1 = 0.7998 | 918.9 | 488.5 | –

CCCCOP(=O)(O)OCCCC + CC(C)N
297 K, 101 kPa
Conditions | viscosity [mPa·s]
x2 = 0.15 | 80
x2 = 0.3 | 240
x2 = 0.48 | 4070
x2 = 0.5 | 4750
x2 = 0.66 | 260
x2 = 0.85 | 100

ClCCCCCCCl + Cc1cc(C)cc(C)c1
viscosity [mPa·s], 101 kPa
Conditions | x1 = 0.1049 | x1 = 0.2004 | x1 = 0.2961 | x1 = 0.4028 | x1 = 0.4994 | x1 = 0.5986 | x1 = 0.7 | x1 = 0.7998 | x1 = 0.9005
308.15 K | 0.645 | 0.714 | 0.798 | 0.896 | 0.995 | 1.106 | 1.221 | 1.352 | 1.488
313.15 K | 0.615 | 0.678 | 0.752 | 0.842 | 0.929 | 1.031 | 1.137 | 1.264 | 1.394
318.15 K | 0.586 | 0.651 | 0.709 | 0.795 | 0.877 | 0.972 | 1.071 | 1.182 | 1.289

COc1ccccc1C + CCCCCOC(C)=O
Conditions | viscosity [mPa·s]
298.15 K, 101 kPa, x1 = 0.5 | 0.8659
